Reference: US7098241B2, “Thiophene hydroxamic acid derivatives” (Hoffmann-La Roche Inc., priority 2002, dated 2006)

What was measured:
[1] = tested on: HT-29 cells (human colon carcinoma cell line); assay: MTT anti-proliferation assay on HT-29 cells; assay type: cell-based; details: Homo sapiens, 120 h, 384 well plates, 5 days, read-out: IC50 HT29 384
Description: MTT (3-(4,5-dimethylthiazol-2-yl)-2,5-diphenyl tetrazolium bromide) is widely used for the quantitative determination of cytotoxic effects or in vitro chemosensitivity of tumor cells. The assay is based on the cleavage of the yellow tetrazolium salt (MTT) to purple formazan crystals by metabolic active cells. For details, see Rubinstein, L. V., et al., J. Natl. Cancer Inst. 82 (1990) 1113.
We proceeded as follows: HT-29 cells (human colon carcinoma cell line) were cultivated in RPMI 1640, 2.5% FCS, 2 mM glutamine, 100 u/ml penicillin, 100 ug/ml streptomycin. For the assay the cells were seeded in 384 well plates, 900 cells per well, in the same medium. At the next day, the compounds (dissolved 10 mM in DMSO) were added in various concentrations ranging from 30 uM to 1.5 nM. After 5 days, the MTT assay was done mainly according to the instructions of the manufacturer (Cell proliferation kit I, MTT, from Roche Molecular Biochemicals). In brief: MTT labeling reagent was added to a final concentration of 0.5 mg/ml, added and incubated for 4 hrs at 37° C., 5% CO2. During this incubation time purple formazan crystals are formed. After addition of the solubilization solution (20% SDS in 0.02 M HCl) the plates were incubated overnight at 37° C., 5% CO2. After careful mixing, the plates were measured in Victor 2 (scanning multiwell spectrophotometer, Wallac) at 550 nm.
A decrease in number of living cells results in a decrease in the total metabolic activity in the sample. The decrease directly correlates to the amount of purple color resulting from the solubilization of the purple formazan crystals. Determination of IC50 was done using XL-fit.

[2] = target: T1, recombinant HDAC-1 (Homo sapiens, UniProt Q13547); assay: HDAC biochemical quench assay; details: recombinant HDAC-1 purified from HEK 293 cells, 1 uM peptide substrate, 90 min at room temperature
T1 construct: made in house; host or cells: HEK 293 cells
T1 sequence (Q13547 whole entry, species assumed): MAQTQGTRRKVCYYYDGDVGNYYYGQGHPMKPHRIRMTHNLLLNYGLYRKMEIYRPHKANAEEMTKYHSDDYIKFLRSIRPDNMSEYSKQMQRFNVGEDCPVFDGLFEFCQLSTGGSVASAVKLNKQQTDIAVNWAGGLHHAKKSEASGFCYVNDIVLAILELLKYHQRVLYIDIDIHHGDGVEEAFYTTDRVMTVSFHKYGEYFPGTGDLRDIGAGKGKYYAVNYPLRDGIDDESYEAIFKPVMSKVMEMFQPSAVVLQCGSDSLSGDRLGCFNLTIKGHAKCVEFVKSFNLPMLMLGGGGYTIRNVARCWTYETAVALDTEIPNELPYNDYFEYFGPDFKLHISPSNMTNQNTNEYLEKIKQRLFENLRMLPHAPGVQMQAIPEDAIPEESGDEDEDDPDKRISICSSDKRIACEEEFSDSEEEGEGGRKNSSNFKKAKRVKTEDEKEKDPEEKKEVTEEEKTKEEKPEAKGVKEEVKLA
Description: The function of histone deacetylase (HDAC) is the deacetylation of lysines in e.g. histone H4. A peptide of 17 amino acids derived from histone H4 was labeled with TAMRA at the C-terminus and QSY-7 at the N-terminus and was used as a substrate (TAMRA-first17 aa of histone H4-QSY7). Following deacetylation by HDAC, the enzyme Lys C is able to cleave the peptide after lysine. […] Inhibition of HDAC by compounds results in low signals because Lys C could not cleave the substrate and the quench effect persists.
For dose response curves, 10 concentrations were diluted 1:3 starting at 30 uM. 10 ul compound dilution were put into each well of a 384 well plate. 10 ul HDAC were added (recombinant HDAC-1 purified from HEK 293 cells; enzyme activity has to be assessed for each preparation). 10 ul peptide substrate was added (1 uM final concentration, derived from 1 mM stock solution diluted 1:1000 in test buffer). After 90 min incubation at room temperature, the reaction was stopped by addition of 20 ul test buffer including 3 ug/ml Lys C and 0.075% SDS. After overnight incubation the fluorescence signal of TAMRA was measured (Victor 2 from Wallac, absorption 544 nm, emission 590 nm). The O.D. of DMSO-treated control wells is 100%, the % inhibition of compound treated wells is calculated in relation to 100%. Based on 10 concentrations a IC50 curve is generated by using XL.fit3.
Test buffer used: a mixture of 10 mM Hepes pH8, 10 mM NaCl, 10% Glycerol, 0.005% Triton X100, 0.1 mM EDTA, 0.1 mM TCEP. As plates were used 384 well plates (black, Greiner, 781077).

Row | IC50 [1] [nM] | IC50 [2] [nM] | SMILES
1 | 770 | 0.8 | O=C(NO)c1ccc(C(=O)N[C@H]2CCCc3ccccc32)s1 [Example 4n, (S)-thiophene-2,5-dicarboxylic acid 2-hydroxyamide 5-[(1,2,3,4-tetrahydro-naphthalen-1-yl)-amide]]
2 | 10 | 4.97 | C[C@@H](NC(=O)c1ccc(C(=O)NO)s1)c1ccc2ccccc2c1 [Example 2f, (R)-thiophene-2,5-dicarboxylic acid 2-hydroxyamide 5-[(1-naphthalen-2-yl-ethyl)-amide]]
3 | 70 | 1.31 | COc1cccc([C@@H](C)NC(=O)c2ccc(C(=O)NO)s2)c1 [Example 2h, (R)-thiophene-2,5-dicarboxylic acid 2-hydroxyamide 5-{[1-(3-methoxy-phenyl)-ethyl]-amide}]
4 | 60 | 1.18 | CC[C@@H](NC(=O)c1ccc(C(=O)NO)s1)c1ccccc1 [Example 2g, (R)-thiophene-2,5-dicarboxylic acid 2-hydroxyamide 5-[(1-phenyl-propyl)-amide]]
